Series [1] deals with Miscellaneous Streptococcus and nontypeable strains. In words: Dalbavancin MIC, baseline isolates of SSTI trial. The class given is cell-based. The conditions noted are these: for Dalbavancin MIC, Miscellaneous Streptococcus and nontypeable strains: MITT.
For series [2] the following is noted: pH 7.4.
For series [3] the following is noted: rat, in vivo.
Description: Excreta and more than 40 different tissues were collected through 70 days post-administration, and the tissue distribution and pharmacokinetics of drug-derived radioactivity were determined.
Following dose administration, urine and feces were collected at 24 hour intervals to 14, 36, and 70 days after the dose (3 rats/final collection time). Water and methanol cage washes were also collected. Carcasses were analyzed at the end of the collection period. AU samples were analyzed for total radioactivity content by liquid scintillation counting (LSC).
The target of another series is Human albumin (Homo sapiens, UniProt P02768). The conditions noted are these: pH 7.4.
For a further series, the system named is human α-glycoprotein. As to conditions: pH 7.4.

The structures appear in SMILES notation. Converted amounts (≈) assume the structure as drawn. Like-named read-outs stand apart in the source and are kept apart here.

Chain of Human albumin (P02768 25-609): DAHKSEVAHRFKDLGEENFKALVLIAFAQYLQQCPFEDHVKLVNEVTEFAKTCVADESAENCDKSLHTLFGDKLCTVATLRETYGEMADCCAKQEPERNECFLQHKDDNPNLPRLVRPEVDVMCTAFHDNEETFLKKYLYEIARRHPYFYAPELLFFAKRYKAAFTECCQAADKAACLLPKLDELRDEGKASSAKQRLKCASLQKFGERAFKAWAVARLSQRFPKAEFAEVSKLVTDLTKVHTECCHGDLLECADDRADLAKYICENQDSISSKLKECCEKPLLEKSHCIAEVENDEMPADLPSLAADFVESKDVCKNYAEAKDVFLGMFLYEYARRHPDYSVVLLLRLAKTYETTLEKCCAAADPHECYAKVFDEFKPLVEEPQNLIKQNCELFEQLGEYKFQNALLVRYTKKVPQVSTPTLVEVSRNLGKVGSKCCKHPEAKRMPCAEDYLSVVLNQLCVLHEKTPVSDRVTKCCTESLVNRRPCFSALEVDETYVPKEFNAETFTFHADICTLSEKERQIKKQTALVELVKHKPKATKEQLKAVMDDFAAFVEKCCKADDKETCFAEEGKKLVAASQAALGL
Description for Human albumin: (§1) Integrated heat effects, after correction for heats of dilution, were analyzed by non-linear regression using a simple single-site binding model with the standard Microcal ORIGIN software package. Raw data (μcal/sec) for each injection were integrated to give the total heat effect per addition, then divided by amount of injectant to give kcal/mole of injectant. The same integration was applied for control dilution effects, and this was subtracted from the actual titration data. This provided a differential of the binding curve in which the extent of binding is proportional to the total heat liberated (or absorbed). This was then analyzed by non-linear regression methods in terms of various standard binding models.
Description for human α-glycoprotein: as §1

For the compound `CN[C@H]1C(=O)N[C@@H]2Cc3ccc(cc3)Oc3cc4cc(c3O[C@@H]3O[C@H](C(=O)O)[C@@H](O)[C@H](O)[C@H]3NC(=O)CCCCCCCCC(C)C)Oc3ccc(cc3Cl)[C@@H](O)[C@@H]3NC(=O)[C@H](NC(=O)[C@@H]4NC(=O)[C@@H](NC2=O)c2cc(cc(O)c2Cl)Oc2cc1ccc2O)c1ccc(O)c(c1)-c1c(O[C@H]2O[C@H](CO)[C@@H](O)[C@H](O)[C@@H]2O)cc(O)cc1[C@@H](C(=O)NCCCN(C)C)NC3=O` [Dalbavancin], the “Dalbavancin MIC, Miscellaneous Streptococcus and nontypeable strains” value in series [1] (standard of care group) is on record as 4 (0.016) mg/L; in series [1] (two-dose group), 2 (0.016) mg/L. Moreover, the MIC in series [1] (Streptococcus, read-out: Dalbavancin MIC, Miscellaneous Streptococcus and nontypeable strains, MITT, single dose group) worked out at 0.016 µg/mL (≈ 8.81 nM). Further, the “Solubility in the presence of HSA” value in series [2] is given as “significantly increased”. Also, in series [3] (male, Sprague-Dawley, 1680 h), the “Dose remaining in the carcass” value is listed as 4.5%. Further, in series [3] (iv, 20 mg/kg), the “Radioactivity administered eliminated in urine and feces within the first week” value is reported as “Approximately half”. The “Share of excreted radioactivity eliminated in feces” value in series [3] (iv, 20 mg/kg) was “⅓”. Also, in series [3] (iv, 20 mg/kg), the “Share of excreted radioactivity eliminated in urine” value is listed as “⅔”. In addition, the “Calculated percent Binding, Human albumin” value on Human albumin (1 μM) is 98.8%; on Human albumin (10 μM), 98.8%; at Human albumin (100 μM), 98.7%; on Human albumin (165 μM), 98.6%; on Human albumin (250 μM), 98.5%; on Human albumin (500 μM), 98.0%. The “Calculated percent Binding, Human α-glycoprotein” value is 73.0% in the series with human α-glycoprotein (1 μM); 68.2% in the series on human α-glycoprotein (10 μM); 26.2% in the series with human α-glycoprotein (100 μM); 16.9% in the series with human α-glycoprotein (165 μM); 11.4% in the series on human α-glycoprotein (250 μM); 5.9% with human α-glycoprotein (500 μM).
